“Also recorded” adds a separate entry of the source.
Columns and labels:
CDC25B = molecular target: T1, CDC25B (Homo sapiens, UniProt P30305); assay: Kinetic studies of CDC25B phosphatase inhibition (OMFP substrate); assay type: biochemical; conditions: putative from Lineweaver-Burk plots (ref 18), confirmed by the fluorescence studies of this work
T1 sequence (P30305 1-580): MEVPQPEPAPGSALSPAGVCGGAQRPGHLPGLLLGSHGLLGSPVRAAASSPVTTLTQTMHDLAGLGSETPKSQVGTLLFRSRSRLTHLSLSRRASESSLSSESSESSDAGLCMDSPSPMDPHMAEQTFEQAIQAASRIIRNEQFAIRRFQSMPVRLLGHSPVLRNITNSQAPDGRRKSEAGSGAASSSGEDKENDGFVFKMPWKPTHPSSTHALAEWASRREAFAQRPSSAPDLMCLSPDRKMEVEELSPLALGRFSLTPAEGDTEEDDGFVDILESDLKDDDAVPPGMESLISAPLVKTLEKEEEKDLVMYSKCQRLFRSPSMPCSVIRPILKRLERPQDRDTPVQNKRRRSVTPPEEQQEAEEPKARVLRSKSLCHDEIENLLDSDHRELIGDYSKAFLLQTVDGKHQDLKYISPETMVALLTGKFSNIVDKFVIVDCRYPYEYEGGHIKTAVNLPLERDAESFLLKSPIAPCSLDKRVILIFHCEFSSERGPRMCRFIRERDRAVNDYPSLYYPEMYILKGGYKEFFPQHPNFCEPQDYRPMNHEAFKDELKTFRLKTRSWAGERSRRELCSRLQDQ

[1] = tested on: cytochrome c in A375 cells; assay: Cytochrome c subcellular localisation (immunofluorescence and Western blotting of fractions); assay type: cell-based, human; conditions: 10 µM, 24 h
Experimental: (§1) To obtain the total protein extract, cells were seeded into 6-well-plates (3 × 10^5 cells/plate) for 24 h at 37 °C and then treated with 4a or 0.5% (v/v) DMSO. After treatment, cells were harvested, washed with PBS, and then lysed in ice-cold modified radio immunoprecipitation assay (RIPA) buffer (50 mM Tris•HCl, pH 7.4, 150 mM NaCl, 1% Nonidet P-40, 0.25% sodium deoxycholate, 1 mM Na3VO4 and 1 mM NaF), supplemented with protease inhibitors and incubated for 30 min on ice. The supernatant, obtained after centrifugation at 13200 g for 30 min at 4 °C, constituted the total protein extract. Protein concentration was determined by the Bradford method, using bovine serum albumin (BSA) as standard. To obtain the cytosolic and mitochondrial fractions, cells were plated at a density of 2 × 10^6 cells/plate for 24 h at 37 °C. After the treatment with 4a or 0.5% (v/v) DMSO, cells were harvested, washed in PBS, and then resuspended in buffer A (5 mM Hepes, pH 7.4, 250 mM mannitol, 0.5 mM EGTA, 0.1% BSA), supplemented with protease inhibitors, and homogenised. The homogenate was centrifuged at 600 g for 5 min at 4 °C and the supernatant was then centrifuged at 10300 g for 10 min at 4 °C. The resulting supernatant represented the cytosolic fraction, whereas the pellet, constituting the mitochondrial fraction was resuspended in RIPA buffer. Protein concentration was determined as previously indicated. Equal amounts of total, cytosolic or mitocondrial protein extracts were used for Western blotting analysis. Briefly, protein samples were dissolved in SDS-reducing loading buffer, run on sodium dodecylsulfate polyacrylamide gel electrophoresis (SDS/PAGE), and then transferred to Immobilon P membrane (Millipore, Saint Louis, MO, USA). The filter was incubated with the specific primary antibody at 4 °C overnight and then with the secondary antibody at room temperature for 1 h. Membranes were then analysed by an enhanced chemiluminescence reaction using WesternBright ECL (Advansta, San Jose, CA, USA) according to manufacturer’s instructions; signals were visualised by autoradiography. The analysis of pAkt protein levels was performed as previously described. Briefly, filters were first incubated with the anti-pAkt primary antibody and then with the secondary antibody and membranes were analysed by an enhanced chemiluminescence reaction as previously indicated. The same filters were then stripped, using AbCam (Cambridge, UK) stripping solution, pH 2 (200 mM glycine, 3.5 mM SDS, 1% Tween-20) at 45 °C for 30 min, washed 3 times with PBS-Tween 0.1%, incubated with anti-Akt primary antibody and then with the relative secondary antibody. Signals were detected as previously specified.
(§2) Immunofluorescence experiments were carried out essentially as previously described. […]

[2] = tested on: cytochrome c in A2058 cells; assay: as above; assay type: cell-based, human; conditions: 10 µM, 24 h
Experimental: as §1, §2

caspase-3 in A2058 cells = assay: Caspase-3 fluorimetric activity assay in cell lysates; assay type: cell-based, human; conditions: 10 µM, 24 h
Experimental: (§3) The caspase-3 and caspase-9 enzymatic activity was measured by using caspase-3 and -9 fluorimetric assay kits, respectively, according to the manufacturer’s protocol. Briefly, cells were seeded into 75 cm^2 plates (2 × 10^6 cells/plate) and after 24 h treated with 4a or 0.5% (v/v) DMSO for 24 h. At the end of incubation, cells were collected, washed with phosphate-buffered saline constituted by 10 mM Na2HPO4, 2 mM KH2PO4, pH 7.4, supplemented with 137 mM NaCl and 2.7 mM KCl (PBS), and finally lysed at 4 °C in the cell lysis buffer. Cell lysates were incubated with 50 µM DEVD-AFC or LEHD-AFC substrates at 37 °C for 2 h, to detect caspase-3 or caspase-9 activity, respectively, using a Cary Eclipse spectrofluorimeter. Excitation and emission wavelengths were set at 400 nm and 505 nm, respectively; both excitation and emission slits were set at 10 nm.

caspase-3 in A375 cells = assay: as above; assay type: cell-based, human; conditions: 10 µM, 24 h
Experimental: as §3

A375 cells = assay: Western blotting of total cell extracts (CDC25A, -B, -C, p53, pAkt); assay type: cell-based, human; conditions: 10 µM
Experimental: as §1

[3] = tested on: A2058 and A375 melanoma cell lines; design: method as in PMID 31294975; conditions: 10 µM; cited from earlier work

**Q.** With `CCOC(=O)c1cccc(Nc2cc(OC)cc3ccccc23)c1` [4a] as the compound, how does the Inhibition mechanism (CDC25B) read?
**A.** uncompetitive

**Q.** What about the “cytochrome c localisation, Western blotting of cytosolic and mitochondrial extracts” value [1] of the same compound?
**A.** significant cytosolic translocation

**Q.** What about the “cytochrome c localisation, immunofluorescence” value [1] of the same compound?
**A.** induces a cytosolic translocation of cytochrome c

**Q.** What about the “cytochrome c localisation, Western blotting of cytosolic and mitochondrial extracts” value [2] of the same compound?
**A.** significant cytosolic translocation

**Q.** What about the “cytochrome c localisation, immunofluorescence” value [2] of the same compound?
**A.** induces a cytosolic translocation of cytochrome c

**Q.** And the “enzymatic activity of caspase-3” value (caspase-3 in A2058 cells)?
**A.** statistically significant increase

**Q.** And the “enzymatic activity of caspase-3” value (caspase-3 in A375 cells)?
**A.** statistically significant increase

**Q.** What about the p53 protein levels (A375 cells; 16- and 24-h) of the same compound?
**A.** clear and significant increase

**Q.** What about the pAkt protein levels (A375 cells; 30-min) of the same compound?
**A.** significant and early decrease

**Q.** And the “CDC25A, -B and -C protein levels” value (A375 cells; essentially after 24- and 48-h)?
**A.** reduction of protein levels of all three forms

**Q.** And the “cell cycle of melanoma cells” value [3]?
**A.** arrest of cells in G2/M phase; also recorded: arrest in the G2/M phase; also recorded: arrested the cell cycle of melanoma cells in G2/M phase

**Q.** And the “cell growth of melanoma cells” value [3]?
**A.** reduced the cell growth rate; also recorded: significantly reduced; also recorded: significant antiproliferative action

**Q.** What about the pCDK1 protein levels [3] of the same compound?
**A.** increase
